Source: patent US8642630B2, “Endogeneous repair factor production accelerators” (Ono Pharmaceutical Co., Ltd., priority 2002, dated 2014)

Legend:
[1] = test system: HGF; experiment: Endogenous repair factor protein producing action (in vitro), HGF by ELISA, Example 2; assay type: cell-based, human; details: 10^-7 mol/l
Procedure: (§1) An angiogenesis kit (manufactured by Kurabo; constituted from normal human umbilical cord vein vascular endothelial cells and normal human skin fibroblasts) was cultured for 3 hours, and then the culture medium (the medium for angiogenesis use attached to the angiogenesis kit was used as the culture medium and cultured at 37° C. under a moist environment of 5% carbon dioxide-95% air, and a carbon dioxide incubator BNA-121D was used as the incubator) was changed and an agent to be tested was added to each well (0.5 ml/well). The agent to be tested were solvent (DMSO) 0.1% and Compound 1 10^−7 mol/l, and the culturing was carried out by using 3 wells for each. Culture supernatants were collected before commencement of the culturing and 1, 2, 6, 24, 48 and 72 hours after the commencement. HGF and VEGF protein concentrations in the culture supernatants were measured by using an ELISA kit (R % D system-Funakoshi).
(§2) As the agent to be tested, Compound 1 ((E)-[5-[2-[1-phenyl-1-(3-pyridyl)methylideneaminoxy]ethyl]-7,8-dihydronaphthalen-1-yloxy]acetic acid) was dissolved in dimethyl sulfoxide (DMSO) to prepare 10^−4 mol/l solution which was then used by diluting 1/1000 time with the culture medium.
(§3) Results of the solvent control wells were compared with those of the wells treated with the agent to be tested by Dunnett's test (two-sided test). The significance level was set to 5%. […]

[2] = test system: normal human umbilical cord vein vascular endothelial cells and normal human skin fibroblasts; experiment: Measurement of angiogenesis acceleration action (in vitro), hollow organ formation, Example 1; assay type: cell-based
Procedure: An angiogenesis kit (manufactured by Kurabo; constituted from normal human umbilical cord vein vascular endothelial cells and normal human skin fibroblasts) was cultured for 3 hours, and then the culture medium (the medium for angiogenesis use attached to the angiogenesis kit was used as the culture medium and cultured at 37° C. under a moist environment of 5% carbon dioxide-95% air, and a carbon dioxide incubator BNA-121D was used as the incubator) was changed and an agent to be tested was added to each well (0.5 ml/well). The medium exchange was carried out also on the 3rd, 6th and 8th days after commencement of the culturing and the fresh agent to be tested was added. The kind and concentration of the agent to be tested were untreated, solvent (DMSO) 0.1%, Compound 1 10^−9, 10^−8 and 10^−7 mol/l, VEGF-A 0.1, 1 and 10 ng/ml and HGF 0.1, 1 and 10 ng/ml, and the culturing was carried out by using 3 wells for each concentration. Fixation was carried out 10 days after the commencement of culturing, and staining of hollow organ with anti-CD31 antibody was carried out by using a hollow organ staining kit (manufactured by Kurabo). As the evaluation, Chalkley Grid (a grid lens, manufactured by Kurabo) was mounted on the eyepiece of a microscope, and the hollow organ formation was evaluated by counting intersections of the randomly arrange points of Chalkley Grid with the formed hollow organ (by referring to the evaluation method of J. Pathol., 177, 275-283 (1995)). The counting was carried out at 12 positions per well, and the total was calculated.
as §2, with “prepare 10^−4, 10^−5 and 10^−6” for “prepare 10^−4”, “mol/l solutions” for “mol/l solution”, “which were” for “which was”
As the VEGF-A (vascular endothelial growth factor-A), the 2 μg/ml solution of VEGF contained in the angiogenesis control reagent kit of Kurabo was diluted with the culture medium and used. […]

[3] = test system: VEGF; experiment: Endogenous repair factor protein producing action (in vitro), VEGF by ELISA, Example 2; assay type: cell-based, human; details: 10^-7 mol/l
Procedure: as §1, §2, §3

[4] = test system: mouse sponge transplantation model; experiment: Angiogenesis test using mouse sponge transplantation model, Example 8; assay type: in vivo; details: for Hemoglobin content / Sponge wet weight: 15th day; for hemoglobin concentration in the granulation tissue, in words: vs polymer group
Procedure: Under anesthesia, dorsal part of a mouse was incised and a discus urethane sponge (about 5 mm in thickness and 13 mm in diameter) was embedded therein. Administration of the agent was carried out by topically administering it directly into the sponge once a day for a total of 14 times starting on the day of the sponge transplantation model preparation, or on the operation-completed day and 7th day thereafter. On the 15th day after the sponge transplantation, the sponge containing granulation tissue was extracted and observed with the naked eye, and then its wet mass was measured. In addition, this was mixed with distilled water of 4 times larger amount than the wet mass, homogenized and centrifuged, and then the supernatant was subjected to the measurement of the hemoglobin content using Hemoglobin 13-Test Wako (manufactured by Wako Pure Chemical Industries).
• The polylactic acid-glycolic acid copolymer used in Preparation Example 2 was suspended in 0.2 w/v % Tween 80 solution (0.05 ml). In this connection, amount of the polylactic acid-glycolic acid copolymer is identical to the amount contained in Compound 1 MS (200 μg). Compound 1 (20 μg) Group: • Compound 1 (20 μg) was suspended in 0.2 w/v % Tween 80 solution (0.05 ml). Compound 1 (40 μg) Group:
Compound 1 (40 μg) was suspended in 0.2 w/v % Tween 80 solution (0.05 ml).
• Compound 1 (200 μg) was suspended in 0.2 w/v % Tween 80 solution (0.05 ml). Compound 1 MS (200 μg) group: • The microsphere preparation produced in Preparation Example 2 containing […] of Compound 1 was suspended in 0.2 w/v % Tween 80 solution (0.05 ml). Compound 1 MS (400 μg) Group: • The microsphere preparation produced in Preparation Example 2 containing 400 μg of Compound 1 was suspended in 0.2 w/v % Tween 80 solution (0.05 ml). Compound 3 (20 μg) Group: • Compound 3 (20 μg) was suspended in 0.2 w/v % Tween 80 solution (0.05 ml).

[5] = 72 hours of culturing, vs solvent control
[6] = after 72 hours of culturing, average of 3 wells ± SD
[7] = 20 μg into the sponge once a day, 14 days of repeated administration
[8] = 40 μg into the sponge once a day, 14 days of repeated administration
[9] = 200 μg into the sponge, two administrations at 7 day intervals

O=C(O)COc1cccc2c1CCC=C2CCO/N=C(\c1ccccc1)c1cccnc1 [Compound 1, (E)-[5-[2-[1-phenyl-1-(3-pyridyl)methylideneaminoxy]ethyl]-7,8-dihydronaphthalen-1-yloxy]acetic acid]
production of HGF protein, in words [1, 5]: accelerated production of HGF protein and VEGF protein statistically significantly | HGF protein concentration in culture supernatant [1, 6]: 518 ± 15 pg/mL | hollow organ formation (Chalkley Grid count), in words ([2]; 10^-8 and 10^-7 mol/l, 10 days of culturing, vs untreated wells, Dunnett's test, FIG. 1): accelerated hollow organ formation statistically significantly | angiogenesis accelerating effect, strength compared with positive control agents ([2]; co-culture system of human vascular endothelial cells and human fibroblasts): strength equivalent to the positive control agents VEGF-A and HGF | production of VEGF protein, in words [3, 5]: accelerated production of HGF protein and VEGF protein statistically significantly | VEGF protein concentration in culture supernatant [3, 6]: 3034 ± 30 pg/mL | Hemoglobin content [4, 7]: 2.403 ± 0.533 mg/g wet tissue | Sponge wet weight [4, 7]: 0.3843 ± 0.0681 g | hemoglobin concentration in the granulation tissue, in words ([4]; 20 μg, 14 days of repeated administration): showed an increasing tendency, but is not a significant increase | Hemoglobin content [4, 8]: 3.010 ± 0.808 mg/g wet tissue | Sponge wet weight [4, 8]: 0.5136 ± 0.0938 g | hemoglobin concentration in the granulation tissue, in words ([4]; 40 μg, 14 days of repeated administration): showed an increasing tendency, but is not a significant increase | Hemoglobin content [4, 9]: 1.964 ± 0.289 mg/g wet tissue | Sponge wet weight [4, 9]: 0.4123 ± 0.0320 g | hemoglobin concentration in the granulation tissue, in words ([4]; 200 μg, two administrations at 7 day intervals): did not increase
